Data on five compounds can be found in US4452851A, “Cephem compounds” (Fujisawa Pharmaceutical Co., Ltd., priority 1981, dated 1984).

SMILES strings stand for the structures. Values after ≈ are worked out from the molar mass of the structure shown.

The test system of data set [1] is Proteus mirabilis 18. Nature of the data set: Minimal inhibitory concentration, two-fold agar-plate dilution method. To be noted: HI-agar, 37° C., 20 hours. Format: cell-based. Here is the method: (§1) In vitro antibacterial activity was determined by the two-fold agar-plate dilution method as described below. One loopful of an overnight culture of each test strain in Trypticase-soy broth (10^8 viable cells per ml) was streaked on heart infusion agar (HI-agar) containing graded concentrations of representative test compound, and the minimal inhibitory concentration (MIC) was expressed in terms of μg/ml after incubation at 37° C. for 20 hours.

Data set [2] relates to Klebsiella pneumoniae 20. Described as above. In kind it is cell-based. To be noted: HI-agar, 37° C., 20 hours. The method, then:
as §1

The test system of data set [3] is Escherichia coli NIHJ JC-2. Described as above. Format: cell-based. The following applies: NIHJJC2, HI-agar, 37° C., 20 hours. The method, then: as §1
Data set [4] relates to Proteus vulgaris IAM-1025. The data set is described as above. Format: cell-based. The following applies: IAM1025, HI-agar, 37° C., 20 hours. The method, then:
as §1

Data set [5] concerns Escherichia coli 31. Described as above. Format: cell-based. To be noted: HI-agar, 37° C., 20 hours. The method, then: as §1
Data set [6] in a line: Urinary excretion in rats after oral administration. In kind it is in vivo. The following applies: rat, 100 mg/kg, 100 mg per Kg, urine 0 to 24 hours, bioassay. The method, then: The concentration of antibiotic in urine samples were bioassayed with the standard buffer at pH 7.0, and the urinary excretion in 24 hours were calculated.
Data set [7] in a line: in vivo. The following applies: rat, po, 100 mg/kg.
Experimental: Rats anesthetized with pentobarbital were fixed in supine position, and a polyethylene cannula was inserted into the bile duct. Bile samples were collected at 0 to 3, 3 to 6, and 6 to 24 hours after oral administration of 100 mg of the test drugs per kg. The antibiotic levels in the bile samples were assyed with the standard solutions prepared with M/15 phosphate buffer (pH 7.0) and the biliary excretion in 24 hours were calculated.

For `CCSC1=C(C(=O)O)N2C(=O)C(NC(=O)/C(=N\OCC(=O)O)c3nsc(N)n3)C2SC1` (stereo not drawn) [(4), 7-[2-(5-amino-1,2,4-thiadiazol-3-yl)-2-carboxymethoxyiminoacetamido]-3-ethylthio-3-cephem-4-carboxylic acid (syn isomer)], the MIC – broadly, the smallest concentration in the dilution series that meets the test's criterion for growth inhibition – is 0.2 µg/mL (≈ 0.409 µM) in data set [1]; 0.39 µg/mL (≈ 0.798 µM) in data set [2]; 1.56 µg/mL (≈ 3.19 µM) in data set [3]; 0.78 µg/mL (≈ 1.6 µM) in data set [4]; 0.2 µg/mL (≈ 0.409 µM) in data set [5].

On to `CCSC1=C(C(=O)O)N2C(=O)C(NC(=O)/C(=N\OCC(=O)O)c3csc(N)n3)C2SC1` (stereo not drawn) [Compound (2), 7-[2-(2-aminothiazol-4-yl)-2-carboxymethoxyiminoacetamido]-3-ethylthio-3-cephem-4-carboxylic acid (syn isomer)], for which the MIC in data set [1] was 0.025 µg/mL (≈ 0.0513 µM); in data set [2] it was 0.1 µg/mL (≈ 0.205 µM); in data set [3] it was 3.13 µg/mL (≈ 6.42 µM); in data set [4], 0.78 µg/mL (≈ 1.6 µM); in data set [5], 0.2 µg/mL (≈ 0.41 µM). Besides, the dose excreted at 24 h worked out at 19.4% in data set [6] and 32.2% in data set [7].

In the case of `CCSC1=C(C(=O)O)N2C(=O)C(NC(=O)/C(=N\OCC(=O)O)c3nc(N)sc3Cl)C2SC1` (stereo not drawn) [Compound (3), 7-[2-(2-amino-5-chlorothiazol-4-yl)-2-carboxymethoxyiminoacetamido]-3-ethylthio-3-cephem-4-carboxylic acid (syn isomer)], the MIC in data set [1] was 0.05 µg/mL (≈ 0.0958 µM); in data set [2] it was 0.2 µg/mL (≈ 0.383 µM); in data set [3], 1.56 µg/mL (≈ 2.99 µM); in data set [4], 0.1 µg/mL (≈ 0.192 µM); in data set [5] it was 0.2 µg/mL (≈ 0.383 µM).

`CSC1=C(C(=O)O)N2C(=O)C(NC(=O)/C(=N\OCC(=O)O)c3cscn3)C2SC1` (stereo not drawn) [Test Compound (3), 7-[2-(4-thiazolyl)-2-carboxymethoxyiminoacetamido]-3-methylthio-3-cephem-4-carboxylic acid (syn isomer)]: the values for the dose excreted at 24 h in data set [6] and in data set [7] were 48.6% and 25.5%, respectively.

`CSC1=C(C(=O)O)N2C(=O)C(NC(=O)/C(=N\OCC(=O)O)c3csc(N)n3)C2SC1` (stereo not drawn) [Compound (1), 7-[2-(2-aminothiazol-4-yl)-2-carboxymethoxyiminoacetamido]-3-methylthio-3-cephem-4-carboxylic acid (syn isomer)]: the MIC came to 0.05 µg/mL (≈ 0.106 µM) in data set [1]; 0.1 µg/mL (≈ 0.211 µM) in data set [2]; 1.56 µg/mL (≈ 3.29 µM) in data set [3]; 0.39 µg/mL (≈ 0.824 µM) in data set [4]; 0.2 µg/mL (≈ 0.422 µM) in data set [5]. The dose excreted at 24 h in data set [6] was found to be 51.6%; in data set [7], 41.1%.
